Assay results: patent US11767506B2, “In vitro maturation culture medium of immature oocytes and use thereof” (CHINA AGRICULTURAL UNIVERSITY, priority 2017, dated 2023)

Legend:
[1] = tested on: oocyte in follicle of mouse; assay: In vitro follicle culture model, recovery of oocyte meiosis; format: cell-based; settings: FIG. 2A
mouse oocytes = assay: In vitro maturation of mouse immature oocytes (cumulus oocyte complexes) on mouse granule cells, fertilization and embryo culture; format: cell-based, C57/BL6J mice
Source text: The specific culture method was referred to Example 8, and the differences were: instead of the granule cells form patients, granule cells from C57/BL6J mice were used; instead of the oocytes form patients, cumulus oocyte complexes form C57/BL6J mice were used.

[2] = tested on: human ovary granule cells; assay: Expression/secretion of EGF-like growth factors (AREG) by granule cells; format: cell-based; settings: FIG. 1F
Description: Correspondingly, our experiments were performed by: under conditions of in vitro culture, simulating the effect of LH, which functions on granule cells to promote the maturation of oocytes in vivo, so as to achieve the goal of promoting the maturation of oocytes and meanwhile, improving the development potential.

human immature oocytes = assay: In vitro maturation of human immature oocytes on granule cell feeder layer, then ICSI and embryo culture; format: cell-based
Description: Microdrop culture of granule cells: the cumulus oocyte complex collected from superovulation of patients were digested with hyaluronidase and then centrifuged to obtain the granule cells; the cells were cultured in the culture solution for in vitro maturation of examples 1˜6 for microdroplet adherent culture respectively. The microdroplets were covered with liquid paraffin. After the granule cells adhered to the wall of the culture dishes, the resultants could be used as the culture medium 1˜6 for in vitro maturation of immature oocytes.
The immature oocytes identified from superovulation of patients were put in the culture medium for in vitro maturation 1 (i.e., the culture medium obtained by using the culture solution for in vitro maturation of Example 1) containing feeder layer cells for microdrop culture. There were 1˜2 oocytes per microdroplet, culture time 20˜25 h, and culture conditions: 37° C., air with 5% CO2 and 6% of O2, and humidity 100%. The development results of the immature oocytes after microdroplet culturing in the culture medium for in vitro maturation 1 were shown in FIG. 1.
Intracytoplasmic sperm injection (ICSI) using the mature oocytes: the immature oocytes were culture in vitro for 20˜25 h, the maturation status was observed. The oocytes reached the metaphase II (MII) were placed under micromanipulator for ICSI injection.
Embryo culture after fertilization: embryo culture medium G-1PLUS™ (Vitrolife, Sweden) was used to make several 50 μL microdroplets in a 35 mm culture dish. Mineral oil was covered on the surface of the droplets. This culture medium was suitable for culturing embryos from fertilized oocyte (0 day) to 8-cell embryo.
Embryo culture medium G-2 PLUS™ (Vitrolife. Sweden) was used to make several 50 μL microdroplets in a 35 mm Petri culture dish. Mineral oil was covered on the surface of the droplets. This culture medium was suitable for culturing embryos from 8-cell stage until blastocyst stage.
The common medium for maturation was M199 culture medium.

`Cc1ccc(NC(=O)CCCCCC(=O)Nc2ccccc2N)cc1` [HDACi 4b] was tested, and the “recovery of oocyte meiosis in follicle of mouse” value [1] was “significantly promotes”, the “maturation and development ability of mouse oocytes” value (mouse oocytes; FIG. 2) was “significantly promotes” and the “oocyte stepping over the first meiosis to metaphase II (MII)” value (mouse oocytes; FIG. 2C) was “significantly promotes”. For the same compound, the “cleavage abilities after fertilization” value (mouse oocytes; FIG. 2D, versus control group) was “basically the same”, the “ability to develop into an embryo from fertilized GV stage oocytes” value (mouse oocytes; FIG. 2E) was “significantly improved” and the “ability to develop into a blastocyst from fertilized treated oocytes” value (mouse oocytes; FIG. 2F) was “significantly increased”. The “ability to develop into a blastocyst (blastocyst counting) from fertilized treated GV stage oocytes” value (mouse oocytes; FIG. 2H) was “significantly increased”, the “quality of blastocysts (immunofluorescence of OCT4)” value (mouse oocytes; FIG. 2I) was “significantly increased” and the “expression of AREG” value [2] was “significantly promotes”. The “maturation and development of human oocytes from germinal vesicle (GV) stage into metaphase II (MII) stage” value (human immature oocytes; FIG. 1A) was “promotes the maturation and development”, the “numbers of 2 pronucleus zygotes (2PN) obtained by ICSI fertilization on MII oocytes” value (human immature oocytes; FIG. 1B, treated group versus control group) was “basically the same” and the “cleavage ability of treated oocytes after fertilization” value (human immature oocytes; FIG. 1C) was “significantly improved”. The “development ability of embryos (blastocyst counting)” value (human immature oocytes; FIG. 1E) was “significantly increased” and the “quality of blastocysts (immunofluorescence of OCT4 and CDX2)” value (human immature oocytes; FIG. 1G) was “significantly improved”.
